Test results published in patent US6737383B1, “Herbicidal oxadiazolidines” (priority 1999, dated 2004).

Key:
[1] = tested on: purple nutsedge; assay: Test B pre/postemergence purple nutsedge; assay type: in vivo, Cyperus rotundus
Method in brief: (§1)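 Test chemicals in a non-phytotoxic solvent mixture with surfactant were sprayed preemergence onto planted seeds and postemergence onto plants 2 to 18 cm tall (1- to 4-leaf stage). After twelve to sixteen days in a greenhouse, injury was visually rated against untreated controls from 0 (no effect) to 10 (complete control).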

[2] = tested on: crabgrass; assay: Test B pre/postemergence crabgrass; assay type: in vivo, Digitaria sanguinalis
Method in brief: as §1

[3] = tested on: bamyardgrass; assay: Test B flood test barnyardgrass; assay type: in vivo, Echinochloa crus-galli
Method in brief: (§2)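 Each value is a visual injury score relative to controls, with 10 meaning complete control and 0 no effect. Evaluation took place twelve to sixteen days after the 2-leaf-stage plants were treated and kept in the greenhouse.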

[4] = tested on: duck salad; assay: Test B flood test duck salad; assay type: in vivo, Heteranthera limosa
Method in brief: as §2

[5] = Postemergence, Rate 250 g/ha, scale 0 to 10, 0 no effect, 10 complete control
[6] = Postemergence, Rate 1000 g/ha, scale 0 to 10 (0 no effect, 10 complete control)
[7] = Preemergence, Rate 125 g/ha, scale 0 to 10 (0 no effect, 10 complete control)
[8] = Preemergence, Rate 250 g/ha, scale of 0 to 10 where 0 is no effect and 10 is complete control
[9] = Preemergence, Rate 500 g/ha, scale 0 (no effect) to 10 (complete control)
[10] = Rate 125 g/ha, Postemergence, scale 0 to 10, 0 no effect, 10 complete control
[11] = Rate 500 g/ha, Postemergence, 0 to 10 scale (0 no effect, 10 complete control)
[12] = Rate 1000 g/ha, Preemergence, scale 0 to 10 (0 no effect, 10 complete control)
[13] = Rate 125 g/ha, Postemergence section (flood test species), scale 0 to 10, 0 no effect, 10 complete control
[14] = Rate 500 g/ha, Postemergence section of Table B, 0 to 10 scale (0 no effect, 10 complete control)
[15] = flood test, listed under Postemergence, Rate 250 g/ha, scale 0 to 10, 0 no effect, 10 complete control
[16] = Postemergence, Rate 62 g/ha, scale 0 to 10, 0 is no effect, 10 is complete control
[17] = Preemergence, Rate 62 g/ha, scale 0 to 10, 0 is no effect, 10 is complete control
[18] = Preemergence, Rate 31 g/ha, visual rating, scale 0 to 10 (0 no effect, 10 complete control)
[19] = Rate 31 g/ha, Postemergence, scale 0 to 10
[20] = Rate 500 g/ha, Postemergence, scale 0 to 10, 0 no effect, 10 complete control
[21] = Preemergence, Rate 62 g/ha, scale 0 to 10 (0 no effect, 10 complete control)
[22] = Rate 500 g/ha, listed under Postemergence (flood test species), scale 0 to 10, 0 no effect, 10 complete control
[23] = Postemergence, Rate 125 g/ha, scale of 0 to 10 where 0 is no effect and 10 is complete control
[24] = Postemergence (flood test species), Rate 125 g/ha, scale of 0 to 10 where 0 is no effect and 10 is complete control
[25] = Rate 62 g/ha, Postemergence, scale of 0 to 10 where 0 is no effect and 10 is complete control

Structure (SMILES)	Nutsedge plant response rating [1, 5]	Plant response rating, Nutsedge [1, 7]	Plant response rating, Nutsedge [1, 8]	Nutsedge plant response rating [1, 9]	Nutsedge plant response rating [1, 10]	Crabgrass plant response rating [2, 5]	Plant response rating, Crabgrass [2, 7]	Plant response rating, Crabgrass [2, 8]	Crabgrass plant response rating [2, 9]	Crabgrass plant response rating [2, 10]	Barnyardgrass plant response rating [3, 13]	Barnyardgrass plant response rating [3, 15]	Ducksalad plant response rating [4, 13]	Ducksalad plant response rating [4, 15]	Nutsedge plant response rating [1, 16]	Crabgrass plant response rating [2, 16]	Barnyardgrass plant response rating [3, 16]	Ducksalad plant response rating [4, 16]	Nutsedge plant response rating [1, 20]	Crabgrass plant response rating [2, 21]	also measured
CCN(CC)C(=O)n1oc(=O)n(-c2ccc(OC(F)(F)F)cc2)c1=O [Compound 12]	0	0	0	0	0	0	0	0	0	0	0	0	0	0	–	–	–	–	–	–	Nutsedge plant response rating [1, 6]: 0; Nutsedge plant response rating [1, 11]: 0; Plant response rating, Nutsedge [1, 12]: 0; Crabgrass plant response rating [2, 6]: 0; Crabgrass plant response rating [2, 11]: 0; Plant response rating, Crabgrass [2, 12]: 6; Barnyardgrass plant response rating [3, 6]: 0; Barnyardgrass plant response rating [3, 14]: 0; Ducksalad plant response rating [4, 6]: 0; Ducksalad plant response rating [4, 14]: 0
Cc1ccccc1-n1c(=O)on(C(=O)N(c2ccc(F)cc2F)C(C)C)c1=O [Compound 25]	0	0	0	0	0	9	8	10	10	7	0	0	0	0	0	2	0	0	–	–	Plant response rating, Nutsedge [1, 17]: 0; Plant response rating, Crabgrass [2, 17]: 5; Crabgrass plant response rating [2, 11]: 9; Barnyardgrass plant response rating [3, 14]: 8; Ducksalad plant response rating [4, 14]: 0
Cc1cccc(C)c1-n1c(=O)on(C(=O)N(c2ccc(F)cc2F)C(C)C)c1=O [Compound 28]	0	0	0	–	0	9	7	9	–	6	8	9	0	0	0	3	5	0	–	–	Nutsedge plant response rating [1, 18]: 0; Plant response rating, Nutsedge [1, 17]: 0; Nutsedge plant response rating [1, 19]: 0; Crabgrass plant response rating [2, 18]: 2; Plant response rating, Crabgrass [2, 17]: 3; Crabgrass plant response rating [2, 19]: 1; Barnyardgrass plant response rating [3, 14]: 10; Ducksalad plant response rating [4, 14]: 4
Cc1ccccc1-n1c(=O)on(C(=O)N(c2cc(F)ccc2F)C(C)C)c1=O [Compound 68]	0	0	10	10	0	0	3	10	10	0	0	0	0	0	0	0	0	0	0	2	Crabgrass plant response rating [2, 20]: 0; Barnyardgrass plant response rating [3, 22]: 0; Ducksalad plant response rating [4, 22]: 0
CCN(C(=O)n1oc(=O)n(Cc2cccs2)c1=O)C1CCCCC1 [Compound 82]	0	0	0	0	0	0	0	0	0	0	0	0	0	0	0	0	0	0	0	0	Nutsedge plant response rating [1, 21]: 0; Crabgrass plant response rating [2, 20]: 0; Barnyardgrass plant response rating [3, 22]: 0; Ducksalad plant response rating [4, 22]: 0
Cc1nn(C)c(Cl)c1-n1c(=O)on(C(=O)N(c2ccc(F)cc2)C(C)C)c1=O [Compound 95]	0	0	0	0	–	6	6	8	8	–	0	0	–	0	0	0	0	0	0	2	Nutsedge plant response rating [1, 23]: 0; Nutsedge plant response rating [1, 21]: 0; Crabgrass plant response rating [2, 23]: 0; Crabgrass plant response rating [2, 20]: 8; Barnyardgrass plant response rating [3, 22]: 4; Ducksalad plant response rating [4, 24]: 0; Ducksalad plant response rating [4, 22]: 0
CCc1noc(C)c1-n1c(=O)on(C(=O)N(c2ccc(F)cc2)C(C)C)c1=O [Compound 101]	0	0	0	0	–	0	0	0	0	–	0	0	–	0	–	–	0	–	0	0	Nutsedge plant response rating [1, 23]: 0; Nutsedge plant response rating [1, 21]: 0; Nutsedge plant response rating [1, 25]: 0; Crabgrass plant response rating [2, 23]: 0; Crabgrass plant response rating [2, 25]: 0; Crabgrass plant response rating [2, 20]: 0; Barnyardgrass plant response rating [3, 22]: 0; Ducksalad plant response rating [4, 24]: 0; Ducksalad plant response rating ([4]; Rate 62 g/ha, Postemergence section, flood test species, scale of 0 to 10 where 0 is no effect and 10 is complete control): 0; Ducksalad plant response rating [4, 22]: 0
